Measurements from patent publication US9279107B2, “Simplified basic media for human pluripotent cell culture” (WISCONSIN ALUMNI RESEARCH FOUNDATION, priority 2010, dated 2016).

What was measured:
Type in all cases: cell-based, human
[1] = tested on: H1 cells; test: Extended passage of cells in simplified media; conditions: DF5, or nutritional factor added individually to DF5
[2] = tested on: H1 cells; test: NANOG mRNA expression; conditions: added to DF5S; NODAL 100 ng/ml or TGF-β 2 ng/ml; compared to DF5S
From the text: DF5S was used to expand H1 cells. Cells grown in DF5S were more prone to differentiate than cells grown in TeSR™. However, H1 cells could be grown for several weeks (more than 15 passages), during which the cells maintained human ES cell morphology and high levels of OCT4 expression (FIG. 1E, FIG. 1F). […] DF5S+NODAL also supported pluripotency of the two tested human iPS cell lines, as determined by high expression of the pluripotency marker OCT4. All cells (hES cells and iPS cells) grown in DF5S with either NODAL or TGF-β maintained a normal karyotype after long-term passage.

[3] = tested on: H1 cells; test: Oct4 expression by flow cytometry as indicator of pluripotency
Description: As described in Example 3, human pluripotent cells, such as H1, H9, and iPS cells, could be grown and passaged over 15 times in DF5S but were prone to differentiate, such that extra care is needed to sustain pluripotency in DF5S. Because pluripotency could be maintained more easily in TeSR™, growth factors present in TeSR™ were added individually to DF5SFe used to grow H1 cells that were previously cultured in DF5S without differentiating to identify factors supporting long-term pluripotency. Cells were passaged approximately one day after reaching confluency, facilitating cell differentiation, and Oct4 expression, assessed by flow cytometry, was used as indicator of pluripotency.
Human pluripotent cells grown in DF5SFe elongated and lined up along each other, resembling a “spindle” shape just prior to differentiation. […] Thus, recombinant proteins of the TGF-β pathway were tested for their ability to support long-term pluripotency.

[4] = tested on: iPS cells; test: Long-term pluripotency of lentiviral iPS cell lines; conditions: added to DF5SFe; TGF-β 2 ng/ml or NODAL 100 ng/ml
From the text: Human ES cell lines, such as H1 and H9 have a culture history that includes exposure to various complex culture components, such as FBS, feeder cells, and knockout serum replacer. Exposure to these components could conceivably create dependency on these components and, consequently, alter cellular response to simplified media. Culture history might play a lesser role for iPS cells, derived from reprogrammed somatic cells, as derivation conditions are less complex. Therefore, different factors were tested with two original lentiviral iPS cell lines (Yu, et al., Science 318:1917 (2007)) grown in DF5SFe. Cells were transferred from MEF plates directly into DF5SFe medium for one passage and then passaged into various growth factor conditions. […] Pluripotency surface markers SSEA4, SSEA3, Tra-1-60, and Tra-1-81 were also expressed. Cells with normal karyotypes were continuously maintained for more than 20 passages. The cells were capable of forming teratomas 5-7 weeks after injection into severe combined immunodeficient (SCID) mice.

[5] = tested on: foreskin cells; test: Reprogramming of foreskin fibroblasts to iPS cells; conditions: foreskin fibroblasts
Description: Available reprogramming protocols include incubation of the cells in FBS in the first several days after viral transduction or electroporation, prior to switching the cells to UM100 (U.S. Pat. No. 7,439,064, incorporated herein as if set forth in its entirety) or CM. The simplified media described in previous Examples were tested for their ability to support reprogramming.
To determine if DF5S-based media can be used for viral-free iPS cell derivation, foreskin cells were reprogrammed using a viral-free episomal vector, as described in Yu et al., Science 324:797 (2009), incorporated herein by reference as if set forth in its entirety, at hypoxic conditions (O5C10).
Plasmid combinations #6 and #19 were used for the reprogramming. In order to enhance the plasmid entry into the nucleus, ENBA mRNA was electroporated along with plasmid DNA. Around one million cells were transferred onto two 6-well plates in DF5SFeC for 5 days. Medium was then switched to DF5SFe for another 18-25 days. Cells of some of the wells were passaged for a second time using a 1:6 ratio at different time points.

[6] = tested on: patient cell lines OAT, PRPF8-2, GRC M1-29; test: Reprogramming of adult donor cell lines with episomal vectors; conditions: TGF-β added to the reprogramming media

Molecule	cell growth / proliferation through multiple passages [1]	NANOG mRNA level [2]	Oct4 expression ([3]; DF5SFe supplemented with TGF-β at TeSR concentration (0.6 ng/ml))	Oct4 expression ([3]; DF5SFe supplemented with TGF-β at higher concentration (1 ng/ml))	long-term pluripotency [4]	number of colonies during reprogramming [5]	number of true iPS cell colonies ([5]; TGF-β addition)	number of iPS clones [6]	total number of colonies [6]
[Se] [selenium]	sufficient to support cell proliferation through multiple passages								
transforming growth factor beta [TGF-β]		significantly higher levels of NANOG mRNA	low levels of Oct4 expression	maintain high Oct4 expression	supported long-term pluripotency of iPS cells	increased numbers of colonies	remained low	not increased significantly	increased significantly
